Reference: publication PMC4038709 (Bioorganic & medicinal chemistry, 2014)

What follows are compounds tested against T1, SET7 (Homo sapiens, UniProt Q8WTS6) (assay: SET7 ELISA methylation assay). Conditions: comparison with parent analog, ELISA 40 µM (Fig. 3).
T1 sequence (Q8WTS6 52-366): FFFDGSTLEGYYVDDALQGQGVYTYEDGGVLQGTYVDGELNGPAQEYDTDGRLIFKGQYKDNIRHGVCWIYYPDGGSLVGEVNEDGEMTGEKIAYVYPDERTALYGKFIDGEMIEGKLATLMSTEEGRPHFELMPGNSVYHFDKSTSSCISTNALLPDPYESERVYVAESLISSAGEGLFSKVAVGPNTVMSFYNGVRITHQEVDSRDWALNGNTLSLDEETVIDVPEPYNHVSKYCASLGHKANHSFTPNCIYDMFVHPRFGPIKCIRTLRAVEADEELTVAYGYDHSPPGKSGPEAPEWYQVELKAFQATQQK
Type: biochemical

| relative potency against SET7 (SAR, in words) | SMILES |
| --- | --- |
| more potent inhibitors of SET7 than 7 | O=C(O)CCCSCc1cccc(-n2ccc3cc(Br)ccc32)c1 [Compound 10, 4-(3-(5-bromo-1H-indol-1-yl)benzylthio)butanoic acid] |
| more potent inhibitors of SET7 than 7 | O=C(O)c1cccc(SCc2cccc(-n3ccc4cc(Br)ccc43)c2)c1 [Compound 11, 3-(3-(5-bromo-1H-indol-1-yl)benzylthio)benzoic acid] |
| increased potency | O=C(O)c1cccc(SCc2cccc(-n3ccc4c(Br)cccc43)c2)c1 [Compound 12, 3-(3-(4-bromo-1H-indol-1-yl)benzylthio)benzoic acid] |
| even more effective | O=C(O)c1cccc(SCc2cccc(-n3ccc4c(-c5ccccc5)cccc43)c2)c1 [Compound 13, 3-(3-(4-phenyl-1H-indol-1-yl)benzylthio)benzoic acid] |
| greatly suppressed activity | O=C(O)c1ccc(-c2cccc3c2ccn3-c2cccc(CNc3cccc(C(=O)O)c3)c2)cc1 [Compound 15, 3-(3-(4-(4-carboxyphenyl)-1H-indol-1-yl)benzylamino)benzoic acid] |

Same assay, conditions: read-out: inhibition of SET7

| inhibition at 40 µM [%] | SMILES |
| --- | --- |
| 50 to 60 | O=C(O)c1cccc(SCc2cccc(-n3ccc4c(-c5ccccc5)cccc43)c2)c1 [Compound 13, 3-(3-(4-phenyl-1H-indol-1-yl)benzylthio)benzoic acid] |
| 50 to 60 | O=C(O)c1cccc(NCc2cccc(-n3ccc4c(-c5ccccc5)cccc43)c2)c1 [Compound 14, 3-(3-(4-phenyl-1H-indol-1-yl)benzylamino)benzoic acid] |

Each compound was assayed against T1, SET7 (assay: SET7 scintillation proximity assay). Conditions: SPA, 50 µM and 15 µM inhibitor, comparison with 19 (Fig. 4).
Type: biochemical

| relative potency against SET7 (SAR, in words) | SMILES |
| --- | --- |
| reduced inhibitor potency | O=C(O)c1cccc(CNc2cccc(-n3ccc4c(-c5ccc(C(F)(F)F)cc5)ncnc43)c2)c1 [Compound 25] |
| reduced inhibitor potency | O=C(O)c1cccc(NCc2ccc(-n3ccc4c(-c5ccc(C(F)(F)F)cc5)ncnc43)s2)c1 [Compound 26] |
